Experiments:
[1] = system: C-terminal processing of PHI(1–27); type: biochemical, mouse; settings: PHI(1–27) with membrane lysate 1 mg/mL in PBS, 37 °C, 15 min, LC-MS; o-phenanthroline 1 mM, phosphoamidon 10 µM
DPP4 = DPP4 (Mus musculus, UniProt P28843); type: biochemical
human plasma = settings: cited from earlier work
plasma = settings: cited from earlier work

Chain of DPP4 (P28843 whole entry): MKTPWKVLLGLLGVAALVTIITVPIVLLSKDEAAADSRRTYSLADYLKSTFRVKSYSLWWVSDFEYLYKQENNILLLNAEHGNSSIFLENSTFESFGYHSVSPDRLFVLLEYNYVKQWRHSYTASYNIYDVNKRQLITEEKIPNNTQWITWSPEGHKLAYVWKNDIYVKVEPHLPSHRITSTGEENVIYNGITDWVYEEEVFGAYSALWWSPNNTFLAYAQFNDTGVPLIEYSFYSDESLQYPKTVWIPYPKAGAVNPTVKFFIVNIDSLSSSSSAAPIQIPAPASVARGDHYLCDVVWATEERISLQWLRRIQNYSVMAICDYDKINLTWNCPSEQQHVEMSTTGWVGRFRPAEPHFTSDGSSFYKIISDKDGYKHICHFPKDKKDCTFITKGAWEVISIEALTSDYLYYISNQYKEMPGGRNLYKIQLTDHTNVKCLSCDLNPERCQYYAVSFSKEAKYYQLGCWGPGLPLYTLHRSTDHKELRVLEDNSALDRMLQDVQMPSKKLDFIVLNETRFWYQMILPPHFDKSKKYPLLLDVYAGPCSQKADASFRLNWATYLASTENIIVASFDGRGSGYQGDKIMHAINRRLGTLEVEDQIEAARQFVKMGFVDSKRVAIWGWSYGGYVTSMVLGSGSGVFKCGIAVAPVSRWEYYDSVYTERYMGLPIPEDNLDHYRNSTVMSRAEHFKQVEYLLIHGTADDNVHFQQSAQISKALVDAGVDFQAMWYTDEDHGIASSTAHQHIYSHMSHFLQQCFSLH

| Compound | effect on C-terminal processing of PHI(1–27) (PHI(1–22) production) [1] | also measured |
| --- | --- | --- |
| c1cnc2c(c1)ccc1cccnc12 [1,10-phenanthroline] | reducing the production of PHI(1–22) |  |
| CNC(=O)[C@H](Cc1c[nH]c2ccccc12)NC(=O)[C@@H](CC(=O)NO)CC(C)C [GM6001] | no impact |  |
| O=S(=O)(F)Cc1ccccc1 [PMSF, phenylmethylsulfonyl fluoride] |  | inhibition of the production of PHI(3–27) (N-terminal processing) (DPP4): strongly inhibited the production of PHI(3–27) |
| CC(C)C[C@H](NP(=O)(O)O[C@@H]1O[C@@H](C)[C@H](O)[C@@H](O)[C@H]1O)C(=O)N[C@@H](Cc1c[nH]c2ccccc12)C(=O)O [phosphoramidon] | no impact |  |
| HAEGTFTSDVSSYLEGQAAKEFIAWLVKGRG-CONH2 |  | fragment found (human plasma): GLP-1(9–36); fragment found (plasma): GLP-1(9–36), major |

Reference: paper PMC3076939 (Biochemistry, 2011)
